Converted amounts (≈) assume the structure as drawn.
How the values were obtained:
Cand.alb. H = assay: Candida albicans pseudomycelium/mycelium phase test, MIC; type: cell-based; details: in vitro, column H, read-out: Minimale Hemmkonzentration (MHK) Cand.alb. H
Description: (§1) Die Wirkung gegen Dermatophyten, Bakterien und Protozonen kann nach Methoden, wie sie beispielsweise in P. Klein, Bakteriologische Grundlagen der chemotherapeutischen Laboratoriumspraxis, Springer-Verlag Berlin, 1957, beschrieben wird, aufgezeigt werden. Die überraschende Wirkung gegenüber Hefen wurde im Pseudomyzel- und Myzelphasentest mit Candida albicans nachgewiesen (vgl. DE-OS 30 10 093). Es wurde geprüft, welche minimalen Hemmkonzentrationen (MHK-Werte) im Agardilutionstest erreicht werden. In der Tabelle 1 sind die Ergebnisse zusammengefaßt.

Trichom. vag. = assay: Minimal inhibitory concentration in vitro (protozoa); type: cell-based; details: read-out: Minimale Hemmkonzentration (MHK) Trichom. vag.
Description: as §1

Entamoeb hist. = assay: as above; type: cell-based; details: read-out: Minimale Hemmkonzentration (MHK) Entamoeb hist.
Description: as §1

Epid. flocc. 157 = assay: Agar dilution test, minimal inhibitory concentration in vitro; type: cell-based; details: read-out: Minimale Hemmkonzentration (MHK) Epid. flocc. 157
Description: as §1

Trichoph. ment. 21 = assay: as above; type: cell-based; details: read-out: Minimale Hemmkonzentration (MHK) Trichoph. ment. 21
Description: as §1

E.coli muta-flor = assay: as above; type: cell-based; details: Escherichia coli, read-out: Minimale Hemmkonzentration (MHK) E.coli muta-flor
Description: as §1

Abs. corym. 1 = assay: as above; type: cell-based; details: read-out: Minimale Hemmkonzentration (MHK) Abs. corym. 1
Description: as §1

Mucor pus. 6 = assay: as above; type: cell-based; details: read-out: Minimale Hemmkonzentration (MHK) Mucor pus. 6
Description: as §1

Strept. faec. 8043 = assay: as above; type: cell-based; details: read-out: Minimale Hemmkonzentration (MHK) Strept. faec. 8043
Description: as §1

Microsp. ferrug. 5 = assay: as above; type: cell-based; details: read-out: Minimale Hemmkonzentration (MHK) Microsp. ferrug. 5
Description: as §1

Staph. aur. SG 511 = assay: as above; type: cell-based; details: read-out: Minimale Hemmkonzentration (MHK) Staph. aur. SG 511
Description: as §1

Aps.fum. 2 = assay: as above; type: cell-based; details: read-out: Minimale Hemmkonzentration (MHK) Aps.fum. 2
Description: as §1

Cand.alb. M = assay: Candida albicans pseudomycelium/mycelium phase test, MIC (column M); type: cell-based; details: in vitro, read-out: Minimale Hemmkonzentration (MHK) Cand.alb. M
Description: as §1

Botrytis cinerea = assay: Versuch 4: activity against Botrytis cinerea on paprika seedlings; type: in vivo; details: 0,05 %ige Spritzbrühe; sprayed before inoculation; assessed after 5 days; value given as 'beispielsweise'
Description: Paprikasämlinge der Sorte "Neusiedler Ideal Elite" wurden, nachdem sich 4 bis 5 Blätter gut entwickelt hatten, mit wäßrigen Suspensionen, die 80 % Wirkstoff und 20 % Emulgiermittel in der Trockensubstanz enthielten, tropfnaß gespritzt. Nach dem Antrocknen des Spritzbelages wurden die Pflanzen mit einer Konidienaufschwemmung des Pilzes Botrytis cenerea besprüht und bei 22 bis 24 C in eine Kammer mit hoher Luftfeuchtigkeit gestellt. Nach 5 Tagen hatte sich die Krankheit auf den unbehandelten Kontrollpflanzen so stark entwickelt, daß die entstandenen Blattnekrosen den überwiegenden Teil der Blätter bedeckten.

[1] = system: Gurkenmehltau (Erysiphe cichoracearum); assay: Versuch 3: activity against cucumber powdery mildew on cucumber seedlings; type: in vivo; details: 0,025 %ige Spritzbrühe; sprayed about 20 h after inoculation; assessed after 21 days; value given as 'beispielsweise'
Description: Blätter von in Töpfen gewachsenen Gurkenkeimlingen der Sorte "Chinesische Schlange" wurden im Zweiblattstadium mit einer Sporensuspension des Gurkenmehltaus (Erysiphe cichoracearum) besprüht. Nach etwa 20 Stunden wurden die Versuchspflanzen mit wäßriger Spritzbrühe, die 80 % Wirkstoff und 20 % Emulgiermittel in der Trockensubstanz enthielt, bis zur Tropfnässe besprüht. Nach dem Antrocknen des J Spritzbelages wurden sie anschließend im Gewächshaus bei Temperaturen zwischen 20 und 22^00 und 70 bis 80 % relativer Luftfeuchtigkeit aufgestellt. Zur Beurteilung der Wirksamkeit der neuen Stoffe wurde das Ausmaß der Pilzentwicklung nach 21 Tagen beurteilt.

[2] = system: Weizenmehltau (Erysiphe graminis var. tritici); assay: Versuch 1: activity against wheat powdery mildew on wheat seedlings; type: in vivo; details: 0,025; 0,006; 0,0015 %ige Spritzbrühen; sprayed 24 h before inoculation; assessed after 7 days; value given as 'beispielsweise'
Procedure: Blätter von in Töpfen gewachsenen Weizenkeimlingen der Sorte "Jubilar" wurden mit wäßriger Spritzbrühe, die 80 % (Gew.%) Wirkstoff und 20 % Emulgiermittel in der Trockensubstanz enthielt, besprüht und 24 Stunden nach dem Antrocknen des Spritzbelages mit Oidien (Sporen) des Weizenmehltaus (Erysiphe graminis var. tritici) bestäubt. Die Versuchspflanzen wurden anschließend im Gewächshaus bei Temperaturen zwischen 20 und 22 °C und 75 bis 80 % relativer Luftfeuchtigkeit aufgestellt. Nach 7 Tagen wurde das Ausmaß der Mehltauentwicklung ermittelt.

[3] = system: Weizenbraunrost (Puccinia recondita); assay: Versuch 2: activity against wheat brown rust on wheat seedlings; type: in vivo; details: 0,025; 0,006; 0,0015 %ige Spritzbrühen; sprayed 24 h after inoculation; assessed after 8 days; value given as 'beispielsweise'
Procedure: Blätter von in Töpfen gewachsenen Weizensämlingen der Sorte "Jubilar" wurden mit Sporen des Braunrostes (Puccinia recondita) bestäubt. Danach wurden die Töpfe für 24 Stunden bei 20 bis 22°C in eine Kammer mit hoher Luftfeuchtigkeit (90 bis 95 %) gestellt. Während dieser Zeit keimten die Sporen aus und die Keimschläuche drangen in das Blattgewebe ein. Die infizierten Pflanzen wurden anschließend mit wäßrigen Spritzbrühen, die 80 % Wirkstoff und 20 % Emulgiermittel in der Trockensubstanz enthielten, tropfnaß gespritzt. Nach dem Antrocknen des Spritzbelages wurden die Versuchspflanzen im Gewächshaus bei Temperaturen zwischen 20 und 22°C und 65 bis 70 % relativer Luftfeuchte aufgestellt. Nach 8 Tagen wurde das Ausmaß der Rostpilzentwicklung auf den Blättern ermittelt.

Trichoderma viride = assay: Versuch 6: fungal growth on malt extract agar containing active ingredient; type: cell-based; parameters: key: 0 = kein Pilzwachstum (Pilzmyzel abgetötet); 1 = geringes Pilzwachstum (bis 1/3 der Agaroberfläche bewachsen); 3 = mittleres Pilzwachstum (bis 2/3 der Agaroberfläche bewachsen); 5 = ungehemmtes Pilzwachstum (gesamte Agaroberfläche bewachsen); details: 40 ppm in 5 % malt extract agar; 5 days at 25 °C; growth score
Description: (§2) Die Wirkstoffe werden in Aceton gelöst, in Mengen von 40 ppm einem verflüssigten 5 %igen Malzextraktagar zugesetzt. Der Agar wird in Petrischalen ausgegossen und nach dem Erstarren werden die fungizidhaltigen Nähragarplatten zentral mit Myzel der holzzerstörenden Pilze Coniophora puteana und Trametes versicolor, des Moderfäule und Stockflecken verursachenden Pilzes Chaetomium globosum sowie mit Sporen des grünen Holzschimmels Trichoderma viride beimpft.
(§3) Nach fünftägiger Bebrütung der Schalen bei 25 °C wird die Entwicklung der Pilzkolonien auf dem Nährboden im Vergleich mit der Kontrolle (ohne Wirkstoff-Zusatz) beurteilt: • 0 = kein Pilzwachstum (Pilzmyzel abgetötet) • 1 = geringes Pilzwachstum (bis 1/3 der Agaroberfläche bewachsen) • 3 = mittleres Pilzwachstum (bis 2/3 der Agaroberfläche bewachsen) • 5 = ungehemmtes Pilzwachstum (gesamte Agaroberfläche bewachsen)

Trametes versicolor = assay: as above; type: cell-based; parameters: key: 0 = kein Pilzwachstum (Pilzmyzel abgetötet); 1 = geringes Pilzwachstum (bis 1/3 der Agaroberfläche bewachsen); 3 = mittleres Pilzwachstum (bis 2/3 der Agaroberfläche bewachsen); 5 = ungehemmtes Pilzwachstum (gesamte Agaroberfläche bewachsen); details: 40 ppm in 5 % malt extract agar; 5 days at 25 °C; growth score
Description: as §2, §3

Chaetomium globosum = assay: as above; type: cell-based; parameters: key: 0 = kein Pilzwachstum (Pilzmyzel abgetötet); 1 = geringes Pilzwachstum (bis 1/3 der Agaroberfläche bewachsen); 3 = mittleres Pilzwachstum (bis 2/3 der Agaroberfläche bewachsen); 5 = ungehemmtes Pilzwachstum (gesamte Agaroberfläche bewachsen); details: 40 ppm in 5 % malt extract agar; 5 days at 25 °C; growth score
Description: as §2, §3

Coniophora puteana = assay: as above; type: cell-based; parameters: key: 0 = kein Pilzwachstum (Pilzmyzel abgetötet); 1 = geringes Pilzwachstum (bis 1/3 der Agaroberfläche bewachsen); 3 = mittleres Pilzwachstum (bis 2/3 der Agaroberfläche bewachsen); 5 = ungehemmtes Pilzwachstum (gesamte Agaroberfläche bewachsen); details: 40 ppm in 5 % malt extract agar; 5 days at 25 °C; growth score
Description: as §2, §3

Pullularia pullulans = assay: Versuch 5: filter paper disc inhibition zone test on malt extract agar; type: cell-based; details: 72 h, discs soaked with 0,2 ml of 200 ppm solution, 3 days at 22 to 24 °C, read-out: Wirksamkeit gegen Pullularia pullulans
Procedure: Filtrierpäpierscheiben mit einem Durchmesser von 13 mm und einer Stärke von 1 mm werden mit 0,2 ml Lösungen getränkt, die jeweils 200 Teile Wirkstoff je Million Teile Lösung (ppm) enthalten. Die Scheiben werden dann auf einem 2 %igen Malzextraktagar in Petrischalen gelegt, die zuvor getrennt mit Sporen des holzverfärbenden Pilzes Pullularia pullulans beimpft wurden. Anschließend werden die Schalen 3 Tage lang bei 22 bis 24 °C bebrütet. Nach dieser Zeit hat sich der Pilz in den Kontrollschalen sehr gut entwickelt.
Die fungizide Wirksamkeit der Wirkstoffe wird anhand der um die Filtrierpapierscheiben herum entstandenen pilzfreien Zonen (Hemmhöfe) wie folgt beurteilt: […]

SMILES | MIC (Cand.alb. H) [µg/mL] | MIC (Trichom. vag.) [µg/mL] | MIC (Entamoeb hist.) [µg/mL] | MIC (Epid. flocc. 157) [µg/mL] | MIC (Trichoph. ment. 21) [µg/mL] | MIC (E.coli muta-flor) [µg/mL] | MIC (Abs. corym. 1) [µg/mL] | MIC (Mucor pus. 6) [µg/mL] | MIC (Strept. faec. 8043) [µg/mL] | MIC (Microsp. ferrug. 5) [µg/mL] | MIC (Staph. aur. SG 511) [µg/mL] | MIC (Aps.fum. 2) [µg/mL] | MIC (Cand.alb. M) [µg/mL] | fungizide Wirkung gegen Botrytis cinerea an Paprika (Botrytis cinerea) [%] | fungizide Wirkung gegen Gurkenmehltau [1] [%] | fungizide Wirkung gegen Weizenmehltau [2] [%] | fungizide Wirkung gegen Weizenbraunrost [3] [%] | other results
Clc1ccc(C2OC2(Cn2cncn2)c2ccc(-c3ccccc3)cc2)cc1 (single isomer, unassigned) [Beispiel 42] |  |  |  |  |  |  |  |  |  |  |  |  |  | 97 | 100 | 100 | 100 | Wirksamkeit gegen Trichoderma viride (Trichoderma viride): 0; Wirksamkeit gegen Trametes versicolor (Trametes versicolor): 0; Wirksamkeit gegen Chaetomium globosum (Chaetomium globosum): 0; Wirksamkeit gegen Coniophora puteana (Coniophora puteana): 0; zone of inhibition at 200 ppm (Pullularia pullulans): > 6 mm
CC(C)(C)C1(Cn2ccnc2)OC1c1ccc(Cl)cc1Cl (single isomer, unassigned) [Beispiel 18] | > 16 | > 16 | > 1 | 0.25 (≈ 0.769 µM) | 0.5 (≈ 1.54 µM) | > 128 | 32 (≈ 98.4 µM) | 16 (≈ 49.2 µM) | 2 (≈ 6.15 µM) | 0.25 (≈ 0.769 µM) | 4 (≈ 12.3 µM) | 0.5 (≈ 1.54 µM) |  |  | 100 |  |  | 

More lines, main results first:

MIC (Cand.alb. H) [µg/mL] | MIC (Trichom. vag.) [µg/mL] | MIC (Entamoeb hist.) [µg/mL] | MIC (Epid. flocc. 157) [µg/mL] | MIC (Trichoph. ment. 21) [µg/mL] | MIC (E.coli muta-flor) [µg/mL] | MIC (Abs. corym. 1) [µg/mL] | MIC (Mucor pus. 6) [µg/mL] | MIC (Strept. faec. 8043) [µg/mL] | MIC (Microsp. ferrug. 5) [µg/mL] | MIC (Staph. aur. SG 511) [µg/mL] | MIC (Aps.fum. 2) [µg/mL] | MIC (Cand.alb. M) [µg/mL] | SMILES | fungizide Wirkung gegen Botrytis cinerea an Paprika (Botrytis cinerea) [%] | fungizide Wirkung gegen Gurkenmehltau [1] [%] | fungizide Wirkung gegen Weizenmehltau [2] [%] | fungizide Wirkung gegen Weizenbraunrost [3] [%] | other results
128 (≈ 376 µM) | > 16 | > 1 | 2 (≈ 5.87 µM) | 2 (≈ 5.87 µM) | > 128 | 8 (≈ 23.5 µM) | 4 (≈ 11.7 µM) | 4 (≈ 11.7 µM) | 2 (≈ 5.87 µM) | 16 (≈ 46.9 µM) | 16 (≈ 46.9 µM) | 0.25 (≈ 0.734 µM) | COc1cccc(C2OC2(Cn2ccnc2)c2ccc(Cl)cc2)c1 (single isomer, unassigned) [Beispiel 29] |  |  |  |  | 
16 (≈ 42.1 µM) | > 16 |  | 0.5 (≈ 1.32 µM) | 0.5 (≈ 1.32 µM) | > 128 | 0.5 (≈ 1.32 µM) | 1 (≈ 2.63 µM) | 128 (≈ 337 µM) |  | 16 (≈ 42.1 µM) | 1 (≈ 2.63 µM) | < 0.0039 | Clc1ccc(C2(Cn3ccnc3)OC2c2ccc(Cl)cc2Cl)cc1 (single isomer, unassigned) [Beispiel 1, 2-(1H-Imidazol-1-yl-methyl)-2-(4-chlorphenyl)-3-(2,4-dichlorphenyl)-oxiran] | 97 | 100 | 100 |  | 
> 128 | > 16 | > 1 | 4 (≈ 10.5 µM) | 8 (≈ 21 µM) | > 128 | 2 (≈ 5.25 µM) | 1 (≈ 2.63 µM) | > 128 | 2 (≈ 5.25 µM) | 32 (≈ 84.1 µM) | > 128 |  | Clc1ccc(C2(Cn3cncn3)OC2c2ccc(Cl)cc2Cl)cc1 (single isomer, unassigned) [Beispiel 3, 2-(1,2,4-Triazol-1-yl--methyl)-2-(4-chlorphenyl)-3-(2,4-dichlorphenyl)-oxiran] | 97 |  |  | 100 | 
